Experimental data reported in US20130274228A1, “CONCOMITANT DRUG FOR IMPROVING COGNITIVE FUNCTION” (Nishizaki Bioinformation Research Institute, priority 2010, published 2013).

Tested on: normal rats
Assay: Water maze test (acquisition latency)
Type: in vivo, rat
Conditions: oral, every day from 7 days before and during the test, male Wister rats
Experimental: Male Wister rats (7-weeks-old) were used for a water maze test. A circular plastic water tank (diameter 180 cm, depth 45 cm) was used. The inside of the water tank was completely painted in black, and dark water with India ink was filled up to 25 cm from the bottom (22° C.). A platform (diameter 11 cm) painted in black was placed in water such that it was 1 cm below the water surface. The water tank was placed in a test room, and several marks seen by the rat from the water tank were put thereon. During the test, the position of the marks was not changed. A platform was placed a predetermined position from the equal distance from the center and the end of the water tank, namely, center of one quadrant. At one of the randomly selected 5 points, the rat was released facing the wall of the water tank, and the time necessary for evacuating on the platform (acquisition latency) was measured. When smoothly evacuated, the rat was left on the platform for 10 seconds. From 7 days before the water maze test and during the test, DLPC (5 mg/kg) alone, DLPC (10 mg/kg) alone, POPC (5 mg/kg) alone, POPC (10 mg/kg) alone, DLPC (5 mg/kg) and POPC (5 mg/kg), or PEG alone, each dissolved in polyethylene glycol (PEG), was orally administered every day. The water maze test m was performed twice a day, and the second test was started at 2 min after the first test. The test was continuously performed for 8 days, and the mean (±SEM) of acquisition latency of continuous 2 days until the rat reached the platform was calculated.
PEG, DLPC (5 mg/kg), DLPC (10 mg/kg), POPC (5 mg/kg), POPC (10 mg/kg) or DLPC (5 mg/kg) and POPC (5 mg/kg) was orally administered to rats every day during the water maze test from 7 days before the test.

SMILES	acquisition latency of the rat (single administration 5 mg/kg)	acquisition latency of the rat (single administration 10 mg/kg)
CCCCC/C=C\C/C=C\CCCCCCCC(=O)OC[C@H](COP(=O)([O-])OCC[N+](C)(C)C)OC(=O)CCCCCCC/C=C\C/C=C\CCCCC [DLPC, 1,2-dilinoleoyl-sn-glycero-3-phosphocholine]	did not show a remarkable effect	did not show a remarkable effect
CCCCCCCC/C=C\CCCCCCCC(=O)O[C@H](COC(=O)CCCCCCCCCCCCCCC)COP(=O)([O-])OCC[N+](C)(C)C [POPC, 1-palmitoyl-2-oleoyl-sn-glycero-3-phosphocholine]	did not show a remarkable effect	did not show a remarkable effect
